According to EP1001770B1, “TAZAROTENE AND UVB PHOTOTHERAPY TREATMENT FOR PSORIASIS” (ALLERGAN, INC., priority 1997, dated 1998):

Key:
[1] = Same clinical study: adverse events and tolerability; format: in vivo, humans
From the text: (§1) The Study objective was to assess safety and efficacy of pre-treatment with Tazarotene 0.1% gel and UVB phototherapy in comparison with the Tazarotene vehicle (placebo) and UVB phototherapy and UVB phototherapy, alone, for 10 weeks. During UVB phototherapy, topical agents were applied three times weekly to the target lesion by the phototherapy nurse. The study was a multicenter, investigator-masked study including 60 subjects and 120 target lesions. During the two-week pre-UVB phototherapy period the patients were randomly assigned to receive two of the following treatments: Tazarotene 0.1% gel once a day; vehicle gel once a day; or no treatment. The topical agents were applied once daily. Prior to UVB therapy, the minimal erythemal dose (MED) was assessed using a range of 20 mJoules/cm^2 up to 100 mJoules/cm^2. Initial starting UVB dose is 25% of MED. If MED is immeasurable, starting dose is 25 mJoules/cm^2. During the ten-week UVB phototherapy period the patients were treated with UVB therapy three times a week and topical therapy three times weekly (0.1% Tazarotene gel, vehicle gel, or no treatment) administered by the phototherapy nurse after UVB exposure. Study population was as follows: male or non-reproductive female; 18 years or older; stable plaque psoriasis; two bilaterally symmetrical plaques accessible to phototherapy; not exceeding 50% of TBS; baseline plaque elevation of at least four (moderate, in 0-8 scoring system); no oral retinoid within two months; no excessive vitamin A intake; no oral psoriatic therapy (other than retinoid) or PUVA within one month; no UVB within two weeks; no significant systemic disease or immunosuppression. The UVB exposure was increased until either improvement in psoriasis was noted or MED was reached. If one target lesion reached MED earlier than the other, a photo-opaque covering was applied to the former so the latter site could still be treated with a higher dose of UVB irradiation. If both target lesions cleared, UVB was discontinued. […] The following evaluation criteria was used: • Efficacy Variable • Plaque elevation, scaling, erythema: • Grading Scale • 0 = none, 2= mild, 4=moderate, 6=severe, 8=very severe (with whole-point increments (1, 3, 5, 7) serving as mid-points) • Global response to treatment • Total cumulative UVB exposure (mJoules/cm^2)
The following adverse events were reported during the study: […]

[2] = system: stable plaque psoriasis; experiment: Clinical study of Tazarotene 0.1% gel plus UVB phototherapy versus vehicle plus UVB or UVB alone: efficacy on target lesions; format: in vivo, humans
From the text: as §1
Treatment success is defined as moderate response or better.

[3] = adverse events reported during the study (count), with UVB phototherapy

## CCOC(=O)c1ccc(C#Cc2ccc3c(c2)C(C)(C)CCS3)nc1 [Tazarotene]
[1]; [3]
  Burning sensation: 1
  Itching: 1
  Lesional irritation: 0
  Perilesional irritation: 2
  Perilesional tenderness: 0
[1]; all reported adverse events
  severity of adverse events: mild
[2]; Figure 1, Tazarotene plus UVB compared with UVB treatment alone
  reduction in plaque: more effective
[2]; Figure 2, Tazarotene plus UVB compared with UVB treatment alone
  reduction in scaling: more effective
[2]; Figure 3, Tazarotene plus UVB compared with UVB treatment alone
  reduction in erythema: more effective
[2]; Figure 4, Tazarotene and UVB phototherapy, by day 81, success = moderate response or better
  treatment success rate: 100%
[2]; Figure 5, Tazarotene and UVB compared with UVB alone or UVB with vehicle (placebo)
  reductions in plaque: greater
[2]; Figure 6, Tazarotene and UVB compared with UVB alone or UVB with vehicle (placebo)
  reductions in scaling: greater
[2]; Figure 7, Tazarotene and UVB compared with UVB alone or UVB with vehicle (placebo)
  reductions in erythema: greater
[2]; Figure 8, Tazarotene and UVB treatment, at 81 days
  success rate: 100%
[2]; Figure 8, Tazarotene and UVB, at day 53
  success: about 90%
[2]; Tazarotene and UVB compared with vehicle and UVB
  time to reach treatment success: more quickly
[2]; Tazarotene and UVB compared with vehicle and UVB or UVB alone
  overall effectiveness in treating psoriasis: more effective
